Laboratory results: patent US4206088A, “Solid conducting agent” (priority 1978, dated 1980)
Where a name gives a salt, the structure may show the parent alone.

Assay: volume resistivity
Type: physicochemical
Conditions: 23° C., 50% relative humidity
Experimental: In the present invention, it is very important that the above-mentioned protonically conductive solid should be adsorbed and supported on a finely divided inorganic solid acid.
Incidentally, in this and subsequent Examples, all the values of the volume resistivity were those as measured at a temperature of 23° C. and a relative humidity of 50%, unless otherwise indicated.

SMILES | volume resistivity
NCCN [Ethylenediamine sulfate] | 2.74×10^8 .OMEGA.-cm
N=C(N)N [Guanidine sulfate] | 6.69×10^7 .OMEGA.-cm
C1N2CN3CN1CN(C2)C3 [Hexamethylene-tetraamine succinate] | 2.05×10^11 .OMEGA.-cm
C1CNCCN1.O=S(=O)(O)O [Piperazine sulfate] | 9.35×10^7 .OMEGA.-cm
C1CCNCC1.O=S(=O)(O)O [piperidine sulfate] | 3.54×10^7 .OMEGA.-cm

Assay: not given
Conditions: as determined at 20° C.; cited from earlier work

SMILES | First Stage Base Dissociation Constant (pKb)
c1ccc(-c2ccccn2)nc1 [2,2'-Bis-pyridine] | 9.88
Nc1ccncc1 [4-Aminopyridine] | 4.83
C=CCN [Allylamine] | 3.51
CCCCCN [Amylamine] | 3.37
NC1CCCCC1 [Cyclohexylamine] | 3.36
CCNCC [Diethylamine] | 3.02
CNC [Dimethylamine] | 3.13
CCN [Ethylamine] | 3.37
CCNN [Ethylhydrazine] | 6.29
NN [Hydrazine] | 6.07
NO [Hydroxylamine] | 8.03
CN [Methylamine] | 3.38
CNN [Methylhydrazine] | 6.13
N=C(N)Nc1ccccc1 [Phenylguanidine] | 3.23
C1CCNCC1 [Piperidine] | 2.78
C1CCNC1 [Pyrrolidine] | 2.73
CN(C)C [Trimethylamine] | 4.24
C1CNC1 [Trimethylene-imine] | 2.71
